Data as given in patent US12208092B2, “Compositions and methods for administering paltusotine to patients with hepatic impairment” (CRINETICS PHARMACEUTICALS, INC., priority 2023, dated 2025).

Tested on: plasma GH
Assay: suppression of plasma GH after rGHRH challenge in rat
Type: in vivo
Details: rat studies (GH and IGF-1 suppression)
Method: The in vivo pharmacological efficacy of paltusotine has been examined in rat and dog. In the rat, acute efficacy was evaluated by examining the suppression of plasma GH in response to a challenge with rat growth hormone releasing hormone (rGHRH). […] The effects of chronic, oral, 14-day administration of paltusotine were evaluated by measuring the sustained suppression of IGF-1 in the rat.

C[C@@H](O)[C@@H]1NC(=O)[C@H](CCCCN)NC(=O)[C@@H](Cc2c[nH]c3ccccc23)NC(=O)[C@H](Cc2ccccc2)NC(=O)[C@@H](NC(=O)[C@H](N)Cc2ccccc2)CSSC[C@@H](C(=O)N[C@H](CO)[C@@H](C)O)NC1=O [Octreotide, reference compound]
maximal effects as positive control: maximal effects similar to orally administered paltusotine
